We go through two compounds from patent US4150139A, “Triazolobenzazepine derivatives” (Takeda Chemical Industries, Ltd., priority 1976, dated 1979).

This assay concerns mice. Put plainly: Analgesic Effect [mice, acetic acid-writhing method]. The following applies: Mus musculus, po, P.O. (per os), 95% C.L. in parentheses. It counts as in vivo. The source says:
The analgesic effects of some representative compounds (I) are set forth below in Table I.
[mice, acetic acid-writhing method]
A general note: Writhing tests count abdominal constrictions after an irritant is injected.

In general, ED50 refers to the dose at which the effect has come halfway, by size or by number of responders.

For `CSc1nnc2n1C=Cc1ccccc1C2` [(I')Z = SCH3, 3-methylthio-11H-s-triazolo[3,4-b][3]benzazepine], the 50% effective dose (ED50) turned out to be 10.5 mg/kg.

On to `C[S+]([O-])c1nnc2n1C=Cc1ccccc1C2` (centres unmarked) [(I')Z = SOCH3, 3-methylsulfinyl-11H-s-triazolo[3,4-b][3]benzazepine], for which the ED50 came to 10.3 mg/kg.
